Experimental data as given in paper PMC6278378, “Virtual Screening, Biological Evaluation, and 3D-QSAR Studies of New HIV-1 Entry Inhibitors That Function via the CD4 Primary Receptor” (Molecules, 2018).
pIC50: −log10 of the molar value. Entries after “also recorded” stand apart in the source; their conditions may differ. Peptide text beside a SMILES is read from it.

Key:
CD4 = target: T1, CD4 (Homo sapiens, UniProt P01730); test: CD4 competitive binding assay (FITC anti-human CD4 antibody, SUP-T1 cells); conditions: for Inhibition at 100 μM (%) / inhibition at 100 µM: inhibition of anti-human CD4 antibody binding to SUP-T1 cells; for PInhibition (Experimental Data): transformed from % inhibition at 100 μM, presented as -ln
T1 construct: endogenous in cells; host or cells: SUP-T1 cells
Description: We chose CD4-expressing SUP-T1 cells to perform the competitive CD4 binding assay. Non-labeled anti-human CD4 antibody (RPA-T4 clone, BioLegend, San Diego, CA, USA) was used as a positive control.
The SUP-T1 cells were cultured in RPMI1640 medium supplemented with 10% (v/v) fetal bovine serum (FBS), 100 IU penicillin, 0.1 mg/mL streptomycin, and 2 mM L-glutamine. After collecting and washing twice with fluorescence activated cell sorting (FACS) buffer (0.5% BSA, 0.05% sodium azide in PBS) by centrifugation, SUP-T1 cells were seeded in a 96-well v-bottom plate at 5 × 10^5 cells/well. The supernatant was discarded by centrifugation and the cell pellet was resuspended with 50 μL various 2× concentrations of test compounds and 50 μL fluorescein isothiocyanate (FITC) labeled anti-human CD4 antibody (RPA-T4 clone, BioLegend, San Diego, CA, USA). The plate was incubated for 40 min on ice. After incubation, the cells were washed twice with FACS buffer by centrifugation, and then resuspended with the assay buffer. The FACS buffer was added at a volume of 50 μL per well. The fluorescence (485EX/528EM) was recorded using a Synergy II plate reader (BioTek Instruments, Inc., Winooski, VT, USA). Experimental data were generated in duplicate each time, and from at least three independent experiments. The mean values of fluorescence were normalized and expressed as a percentage of the control group values. Binding curves and IC50 values were calculated by GraphPad Prism 7 (GraphPad Software Inc., La Jolla, CA, USA) and presented as the mean ± SEM.

HIV-1 (NL4-3 strain) = test: microbe, parasite or virus in culture; format: cell-based; conditions: Human immunodeficiency virus 1, NL43, PBMC; 0.1 μM, PBMCs; read-out: Inhibition of HIV-1 entry (intracellular p24)
Description: We also performed anti-HIV-1 entry assays to investigate the potential suppression by 3 of HIV-1 infection via its entry mechanism.
The Anti-HIV-1 entry assay was performed by measuring intercellular p24 antigen. Before the infection, PBMCs (2.5 × 10^6 cells/mL) were added into 96-well plates at 100 μL/well, then co-incubated with compounds of various concentrations for 2 h. PBMCs were then washed twice with PBS and infected with the NL4-3 strain of HIV-1 at an MOI of 0.02 for 2 h at 37 °C with 5% CO2 (CO2 incubator, Eppendorf, Hamburg, Germany). After two washes with PBS (1200 rpm, 20 °C, 5 min), the cells were re-suspended in 100 µL complete medium and incubated for 24 h. Subsequently, the PBMCs were washed and resuspended in 100 µL/well lysis buffer containing 1% protease inhibitor cocktail (Sigma-Aldrich, St. Louis, MO, USA). The intercellular p24 antigen was measured according to the protocol provided with the HIV-1 ELISA kit (PerkinElmer Inc. Waltham, MA, USA).

HIV-1 = system: HIV-1; set-up: method as in PMID 12207905; conditions: cited from earlier work
CEM-GFP cell line = test: CEM-GFP cell viability (CellTiter Blue); format: cell-based; conditions: highest concentration 25 µM
Description: Figure 3 The competitive CD4 binding assay results of analogs of 3 (A).
We also evaluated the anti-HIV-1 infection activity of 29 using the CEM-GFP reporter cell line.

HIV-1 NL4-3 strain = test: Anti-HIV-1 infection assay (CEM-GFP reporter cells, GFP fluorescence); format: cell-based; conditions: Human immunodeficiency virus 1, NL43, HIV-1 NL4-3, 4-5 days
Description: We performed anti-HIV-1 infection and anti-HIV-1 entry assays by measuring GFP expression and intracellular p24 antigen level. For the anti-HIV-1 infection assays, the CEM-GFP reporter cell line was used, and HIV-1 infection induced a 10- to 1000-fold increase in the relative fluorescence of the cells.
The CEM-GFP cells were obtained from the NIH AIDS program (NIH AIDS Reagent Program, Division of AIDS, NIAID, NIH: CEM-GFP Cells from Dr. Jacques Corbeil) and cultured in RPMI 1640 medium containing 10% FBS, 1% penicillin-streptomycin (Life Technologies, Carlsbad, CA, USA), 1% 200 mM L-glutamine (Mediatech-VWR, Aurora, CO, USA), and 500 µg/mL G418 (BioPioneer Inc, San Diego, CA, USA). After collecting and counting, the CEM-GFP cells were infected with HIV-1 NL4-3 strain (MOI 0.01) at 37 °C for 2–3 h, cells were then washed twice with PBS, and 10^5 cells/well were seeded into a 96-well plate in the presence of different concentrations of test compounds. After culturing at 37 °C with 5% CO2 for 4 or 5 days, the GFP fluorescence (485EX/528EM) was measured using a Synergy II microplate reader (BioTek Instruments, Inc., Winooski, VT, USA).

[1] = system: HIV-1 nucleocapsid-p7 protein (NC-p7); set-up: method as in PMID 12207905; conditions: cited from earlier work

| Compound | Inhibition at 100 μM (%) (CD4) | PInhibition (Experimental Data) (CD4) | other results |
| --- | --- | --- | --- |
| CC(=O)c1c(O)c2ccccc2oc1=O [Compound 7] | 8.87 | 2.988 | – |
| CSCCC(NC(=O)C(CC(C)C)NC(=O)CNC(=O)C(NC(=O)C(Cc1ccccc1)NC(=O)C(CCC(N)=O)NC(=O)C(CC(=O)O)NC(=O)C(CO)NC(=O)C(CCCCN)NC(=O)C1CCCN1C(=O)C(NC(=O)C(N)CC(=O)O)C(C)C)C(C)C)C(N)=O (stereo not drawn) [Compound 9] (H-DVPKSDQFVGLM-NH2; configuration not given here) | 6.40 | 2.835 | – |
| CCCCC(=O)c1c(O)ccc2c(C)cc(=O)oc12 [Compound 8] | 12.04 | 3.136 | – |
| Cn1c(=O)c2c(nc(NCCNc3nc4c(c(=O)n(C)c(=O)n4C)n3C)n2C)n(C)c1=O [Compound 1] | – | – | inhibition at 100 µM (CD4): 34.2% |
| Nc1ccn([C@H]2O[C@H](CO)[C@@H]3[O][Sn]([c]4ccccc4)([c]4ccccc4)[O][C@H]32)c(=O)n1 [Compound 5] | 33.09 | – | – |
| O=c1oc2c(cc1O)oc(=O)c1cc(O)c(O)c(O)c12 [Compound 31] | – | – | inhibition at 100 µM (CD4): 16% |
| c1cc(CN2CCCNCCNCCCNCC2)ccc1CN1CCCNCCNCCCNCC1 [AMD3100, reference compound] | – | – | inhibition at 0.1 µM (HIV-1 (NL4-3 strain)): 57.6% |
| O=C(O)/C=C/c1c2ccc(=O)c(O)c-2oc2c(O)c(O)ccc12 [Compound 29] | – | 4.763 | inhibition of HIV-1 infection (HIV-1): inhibit HIV-1 infection; pIC50 (CD4; SUP-T1 cells, anti-human CD4 antibody competition): 4.85; Cytotoxicity in CEM-GFP cell line (CEM-GFP cell line): complete lack of cytotoxicity effect; also recorded: no cytotoxicity; pIC50 (HIV-1 NL4-3 strain): 5.70; binding to NC-p7 [1]: bind |
| O=c1oc2cc(O)ccc2c2c1CCCC2 [Compound 12] | 5.27 | 2.745 | – |
| Cc1cc(=O)oc2c(O)c(O)ccc12 [Compound 11] | 10.83 | 3.084 | – |
| O=C(O)Cc1cc(=O)oc2cc(O)ccc12 [Compound 10] | 16.98 | 3.311 | – |
| CCCCCCCCCCCC(=O)c1c(O)c2ccccc2oc1=O [Compound 17] | – | 3.774 | – |
| Cc1cc(=O)oc2cc(O)cc(O)c12 [Compound 6] | 5.64 | 2.762 | – |
| CCC(=O)c1cc2ccc(O)cc2oc1=O [Compound 13] | 11.80 | 3.126 | – |
| N[C@@H](CSC1(c2ccc(Cl)cc2)c2ccccc2-c2ccccc21)C(=O)O [Compound 4] | – | – | inhibition at 100 µM (CD4): 22.6% |
| O=C(O)/C=C/c1c2ccc(=O)c(O)c-2oc2c(O)c(O)ccc12 [Compound 28] | – | 4.566 | – |
| CCCCC(=O)c1c(O)c2ccccc2oc1=O [Compound 18] | – | 3.771 | – |
| Nc1ccc(S(=O)(=O)c2ccc(NCN3C(=O)NC(=O)C(=O)C3=O)cc2)cc1 [Compound 2] | – | – | inhibition at 100 µM (CD4): 36.9% |

More lines, main results first:

| Inhibition at 100 μM (%) (CD4) | PInhibition (Experimental Data) (CD4) | Compound | other results |
| --- | --- | --- | --- |
| 19.76 | 3.391 | CCC(=O)c1c(O)c2ccccc2oc1=O [Compound 16] | – |
| 15.80 | 3.273 | CC(=O)/C=C(\c1ccccc1)c1c(O)c2ccccc2oc1=O [Compound 15] | – |
| 6.48 | 2.841 | Cc1cc(=O)c2c(o1)-c1c(cc(O)c(O)c1C(=O)O)OC2 [Compound 30] | – |
| – | 3.920 | O=C(O)Cc1cccc2c(=O)cc(Cc3ccccc3)oc12 [Compound 24] | – |
| – | 3.690 | O=C(O)CCc1cccc2c(=O)cc(-c3ccccc3)oc12 [Compound 23] | – |
| – | 3.668 | O=C(O)Cc1cc(=O)oc2cc(O)ccc12 [Compound 19] | – |
| – | 3.809 | Cc1ccc(-c2cc(=O)c3cccc(CC(=O)O)c3o2)cc1 [Compound 22] | – |
| – | 3.541 | O=C(O)Cc1cccc2c(=O)cc(C3CCCCC3)oc12 [Compound 25] | – |
| – | 3.702 | O=C(O)Cc1cccc2c(=O)cc(-c3ccccc3)oc12 [Compound 21] | inhibition at 100 µM (CD4): > 20% |
| – | 3.874 | O=C(/C=C/c1ccccc1)CCc1c(O)c2ccccc2oc1=O [Compound 20] | – |
| 8.47 | 2.966 | O=c1oc2cccc(O)c2c(O)c1Cc1ccccc1 [Compound 14] | – |
| – | 3.400 | O=C(O)CCC(=O)c1ccc(Oc2ccccc2)cc1 [Compound 32] | – |
| 18.10 | 3.344 | Cc1cc(=O)c2cccc(CC(=O)O)c2o1 [Compound 26] | – |
| – | 4.024 | Cc1cc2c(=O)cc(-c3ccccc3)oc2c(C(=O)O)c1C [Compound 27] | – |
